Data: ChEMBL document CHEMBL1268945, “Sequential cytotoxicity: a theory examined using a series of 3,5-bis(benzylidene)-1-diethylphosphono-4-oxopiperidines and related phosphonic acids” (Bioorg Med Chem Lett, 2010)

System: HSC-3
Test: Selectivity index, ratio of CC50 for normal cells to CC50 for human HSC3 cells
Assay type: functional

Structure (SMILES)	Selectivity Index
O=C1/C(=C/c2ccc(Cl)cc2)CN(P(=O)(O)O)C/C1=C\c1ccc(Cl)cc1	11
CCOP(=O)(OCC)N1C/C(=C\c2cccc([N+](=O)[O-])c2)C(=O)/C(=C/c2cccc([N+](=O)[O-])c2)C1	3.4
Cc1ccc(/C=C2\CN(P(=O)(O)O)C/C(=C\c3ccc(C)cc3)C2=O)cc1	5.4
COc1ccc(/C=C2\CN(P(=O)(O)O)C/C(=C\c3ccc(OC)c(OC)c3)C2=O)cc1OC	3.6
O=C1/C(=C/c2ccc([N+](=O)[O-])cc2)CN(P(=O)(O)O)C/C1=C\c1ccc([N+](=O)[O-])cc1	13

System: HL-60
Test: Selectivity index, ratio of CC50 for normal cells to CC50 for human HL60 cells
Assay type: functional

Structure (SMILES)	Selectivity Index
O=C1/C(=C/c2ccc(Cl)cc2)CN(P(=O)(O)O)C/C1=C\c1ccc(Cl)cc1	9.8
CCOP(=O)(OCC)N1C/C(=C\c2cccc([N+](=O)[O-])c2)C(=O)/C(=C/c2cccc([N+](=O)[O-])c2)C1	54
Cc1ccc(/C=C2\CN(P(=O)(O)O)C/C(=C\c3ccc(C)cc3)C2=O)cc1	4.6
COc1ccc(/C=C2\CN(P(=O)(O)O)C/C(=C\c3ccc(OC)c(OC)c3)C2=O)cc1OC	8.1
O=C1/C(=C/c2ccc([N+](=O)[O-])cc2)CN(P(=O)(O)O)C/C1=C\c1ccc([N+](=O)[O-])cc1	21

System: not listed separately
Test: Cytotoxicity against human HPLF cells
Assay type: cell-based

Structure (SMILES)	CC50 [nM]
O=C1/C(=C/c2ccc(Cl)cc2)CN(P(=O)(O)O)C/C1=C\c1ccc(Cl)cc1	5100
CCOP(=O)(OCC)N1C/C(=C\c2cccc([N+](=O)[O-])c2)C(=O)/C(=C/c2cccc([N+](=O)[O-])c2)C1	3900
Cc1ccc(/C=C2\CN(P(=O)(O)O)C/C(=C\c3ccc(C)cc3)C2=O)cc1	6100
COc1ccc(/C=C2\CN(P(=O)(O)O)C/C(=C\c3ccc(OC)c(OC)c3)C2=O)cc1OC	2500
O=C1/C(=C/c2ccc([N+](=O)[O-])cc2)CN(P(=O)(O)O)C/C1=C\c1ccc([N+](=O)[O-])cc1	3400

System: HSC-4
Test: Selectivity index, ratio of CC50 for normal cells to CC50 for human HSC4 cells
Assay type: functional

Structure (SMILES)	Selectivity Index
O=C1/C(=C/c2ccc(Cl)cc2)CN(P(=O)(O)O)C/C1=C\c1ccc(Cl)cc1	6.3
CCOP(=O)(OCC)N1C/C(=C\c2cccc([N+](=O)[O-])c2)C(=O)/C(=C/c2cccc([N+](=O)[O-])c2)C1	9.6
Cc1ccc(/C=C2\CN(P(=O)(O)O)C/C(=C\c3ccc(C)cc3)C2=O)cc1	5.3
COc1ccc(/C=C2\CN(P(=O)(O)O)C/C(=C\c3ccc(OC)c(OC)c3)C2=O)cc1OC	5
O=C1/C(=C/c2ccc([N+](=O)[O-])cc2)CN(P(=O)(O)O)C/C1=C\c1ccc([N+](=O)[O-])cc1	23

System: HSC-2
Test: Cytotoxicity against human HSC2 cells
Assay type: functional

Structure (SMILES)	CC50 [nM]
O=C1/C(=C/c2ccc(Cl)cc2)CN(P(=O)(O)O)C/C1=C\c1ccc(Cl)cc1	420
CCOP(=O)(OCC)N1C/C(=C\c2cccc([N+](=O)[O-])c2)C(=O)/C(=C/c2cccc([N+](=O)[O-])c2)C1	760
Cc1ccc(/C=C2\CN(P(=O)(O)O)C/C(=C\c3ccc(C)cc3)C2=O)cc1	760
COc1ccc(/C=C2\CN(P(=O)(O)O)C/C(=C\c3ccc(OC)c(OC)c3)C2=O)cc1OC	400
O=C1/C(=C/c2ccc([N+](=O)[O-])cc2)CN(P(=O)(O)O)C/C1=C\c1ccc([N+](=O)[O-])cc1	180

System: HSC-3
Test: Cytotoxicity against human HSC3 cells
Assay type: functional

Structure (SMILES)	CC50 [nM]
O=C1/C(=C/c2ccc(Cl)cc2)CN(P(=O)(O)O)C/C1=C\c1ccc(Cl)cc1	410
CCOP(=O)(OCC)N1C/C(=C\c2cccc([N+](=O)[O-])c2)C(=O)/C(=C/c2cccc([N+](=O)[O-])c2)C1	740
Cc1ccc(/C=C2\CN(P(=O)(O)O)C/C(=C\c3ccc(C)cc3)C2=O)cc1	950
COc1ccc(/C=C2\CN(P(=O)(O)O)C/C(=C\c3ccc(OC)c(OC)c3)C2=O)cc1OC	590
O=C1/C(=C/c2ccc([N+](=O)[O-])cc2)CN(P(=O)(O)O)C/C1=C\c1ccc([N+](=O)[O-])cc1	230

System: HSC-2
Test: Selectivity index, ratio of CC50 for normal cells to CC50 for human HSC2 cells
Assay type: functional

Structure (SMILES)	Selectivity Index
O=C1/C(=C/c2ccc(Cl)cc2)CN(P(=O)(O)O)C/C1=C\c1ccc(Cl)cc1	11
CCOP(=O)(OCC)N1C/C(=C\c2cccc([N+](=O)[O-])c2)C(=O)/C(=C/c2cccc([N+](=O)[O-])c2)C1	3.3
Cc1ccc(/C=C2\CN(P(=O)(O)O)C/C(=C\c3ccc(C)cc3)C2=O)cc1	6.7
COc1ccc(/C=C2\CN(P(=O)(O)O)C/C(=C\c3ccc(OC)c(OC)c3)C2=O)cc1OC	5.3
O=C1/C(=C/c2ccc([N+](=O)[O-])cc2)CN(P(=O)(O)O)C/C1=C\c1ccc([N+](=O)[O-])cc1	17

System: not listed separately
Test: Cytotoxicity against human HPC cells
Assay type: cell-based

Structure (SMILES)	CC50 [nM]
O=C1/C(=C/c2ccc(Cl)cc2)CN(P(=O)(O)O)C/C1=C\c1ccc(Cl)cc1	2600
CCOP(=O)(OCC)N1C/C(=C\c2cccc([N+](=O)[O-])c2)C(=O)/C(=C/c2cccc([N+](=O)[O-])c2)C1	1500
Cc1ccc(/C=C2\CN(P(=O)(O)O)C/C(=C\c3ccc(C)cc3)C2=O)cc1	3300
COc1ccc(/C=C2\CN(P(=O)(O)O)C/C(=C\c3ccc(OC)c(OC)c3)C2=O)cc1OC	1300
O=C1/C(=C/c2ccc([N+](=O)[O-])cc2)CN(P(=O)(O)O)C/C1=C\c1ccc([N+](=O)[O-])cc1	1600

System: HL-60
Test: Cytotoxicity against human HL60 cells
Assay type: functional

Structure (SMILES)	CC50 [nM]
O=C1/C(=C/c2ccc(Cl)cc2)CN(P(=O)(O)O)C/C1=C\c1ccc(Cl)cc1	460
CCOP(=O)(OCC)N1C/C(=C\c2cccc([N+](=O)[O-])c2)C(=O)/C(=C/c2cccc([N+](=O)[O-])c2)C1	50
Cc1ccc(/C=C2\CN(P(=O)(O)O)C/C(=C\c3ccc(C)cc3)C2=O)cc1	1100
COc1ccc(/C=C2\CN(P(=O)(O)O)C/C(=C\c3ccc(OC)c(OC)c3)C2=O)cc1OC	260
O=C1/C(=C/c2ccc([N+](=O)[O-])cc2)CN(P(=O)(O)O)C/C1=C\c1ccc([N+](=O)[O-])cc1	140

System: not listed separately
Test: Cytotoxicity against human HGF cells
Assay type: cell-based

Structure (SMILES)	CC50 [nM]
O=C1/C(=C/c2ccc(Cl)cc2)CN(P(=O)(O)O)C/C1=C\c1ccc(Cl)cc1	5900
CCOP(=O)(OCC)N1C/C(=C\c2cccc([N+](=O)[O-])c2)C(=O)/C(=C/c2cccc([N+](=O)[O-])c2)C1	2200
Cc1ccc(/C=C2\CN(P(=O)(O)O)C/C(=C\c3ccc(C)cc3)C2=O)cc1	5900
COc1ccc(/C=C2\CN(P(=O)(O)O)C/C(=C\c3ccc(OC)c(OC)c3)C2=O)cc1OC	2600
O=C1/C(=C/c2ccc([N+](=O)[O-])cc2)CN(P(=O)(O)O)C/C1=C\c1ccc([N+](=O)[O-])cc1	4100

System: HSC-4
Test: Cytotoxicity against human HSC4 cells
Assay type: functional

Structure (SMILES)	CC50 [nM]
O=C1/C(=C/c2ccc(Cl)cc2)CN(P(=O)(O)O)C/C1=C\c1ccc(Cl)cc1	720
CCOP(=O)(OCC)N1C/C(=C\c2cccc([N+](=O)[O-])c2)C(=O)/C(=C/c2cccc([N+](=O)[O-])c2)C1	260
Cc1ccc(/C=C2\CN(P(=O)(O)O)C/C(=C\c3ccc(C)cc3)C2=O)cc1	960
COc1ccc(/C=C2\CN(P(=O)(O)O)C/C(=C\c3ccc(OC)c(OC)c3)C2=O)cc1OC	420
O=C1/C(=C/c2ccc([N+](=O)[O-])cc2)CN(P(=O)(O)O)C/C1=C\c1ccc([N+](=O)[O-])cc1	130
